Data reported in ChEMBL document CHEMBL4251642 (Eur J Med Chem, 2018).
Calls of active or inactive are those of the source. The rule behind the calls is not given here.

What was measured:
[1] = biological target: Neuraminidase (Influenza A virus (A/Memphis/1/1971(H3N2)), UniProt P03471); type: cell-based, Influenza A virus (A/Brisbane/10/2007(H3N2)), HEK293
[2] = biological target: Neuraminidase (Influenza A virus (strain A/Wilson-Smith/1933 H1N1) (Influenza A virus(strain A/WS/1933 H1N1)), UniProt P03470)
[3] = Cytotoxicity against MDCK cells after 48 hrs by CellTiter96 Aqueous non-radioactive cell proliferation assay; type: cell-based, Canis lupus familiaris; details: dog
[4] = biological target: Neuraminidase (Influenza A virus (strain A/Wilson-Smith/1933 H1N1) (Influenza A virus(strain A/WS/1933 H1N1)), UniProt P03470); remark: listed apart in the source
Influenza A virus [5] = test: Antiviral activity against Influenza A virus (A/WSN/1933(H1N1)) infected in MDCK cells assessed as inhibition of virus-induced cytopathic effect after 48 hrs by CellTiter96 Aqueous non-radioactive cell proliferation assay; type: functional, organism-based
[6] = Drug metabolism in rabbit serum assessed as (1S,2S,3R,4R)-3-[(S)-1-acetamido-2-ethylbutyl]-4-guanidino-2-[(3-hydroxypropyl)carbamoyloxy]cyclopentane-1-carboxylic acid formation at 37 degC after 24 hrs by HPLC-ESI-MS analysis; type: ADME, cell-free, Oryctolagus cuniculus
Influenza A virus [7] = test: Antiviral activity against Influenza A virus (A/WSN/1933(H1N1)) infected in BALB/c mouse assessed as mouse survival at 0.72 umol/day, po for 5 consecutive days measured on day 14 post dose; type: functional, organism-based
[8] = Drug metabolism in rabbit serum assessed as 3-[(1S,2R,3R,5S)-2-[(S)-1-acetamido-2-ethylbutyl]-5-carboxy-3-guanidinocyclopentoxycarbonyl]aminopropan-1-aminium trifluoroacetate formation at 37 degC after 24 hrs by HPLC-ESI-MS analysis; type: ADME, cell-free, Oryctolagus cuniculus
Influenza A virus [9] = test: Antiviral activity against Influenza A virus (A/WSN/1933(H1N1)) infected in BALB/c mouse assessed as mouse survival at 0.96 umol/day, po for 5 consecutive days measured on day 14 post dose; type: functional
[10] = Stability in rabbit serum at 37 degC after 24 hrs by HPLC-ESI-MS analysis; type: ADME, cell-free, Oryctolagus cuniculus
[11] = Drug level in rabbit serum treated with (1S,2S,3R,4R)-3-[(S)-1-Acetamido-2-ethylbutyl]-2-[[3-((E)-3-(3,4-dihydroxyphenyl)acryloyloxy)propyl]carbamoyloxy]-4-guanidinocyclopentane-1-carboxylic acid at 37 degC after 24 hrs by HPLC-ESI-MS analysis; type: ADME, cell-free, Oryctolagus cuniculus

Chain of Neuraminidase (Influenza A virus (strain A/Wilson-Smith/1933 H1N1) (Influenza A virus(strain A/WS/1933 H1N1)), UniProt P03470) (P03470 whole entry): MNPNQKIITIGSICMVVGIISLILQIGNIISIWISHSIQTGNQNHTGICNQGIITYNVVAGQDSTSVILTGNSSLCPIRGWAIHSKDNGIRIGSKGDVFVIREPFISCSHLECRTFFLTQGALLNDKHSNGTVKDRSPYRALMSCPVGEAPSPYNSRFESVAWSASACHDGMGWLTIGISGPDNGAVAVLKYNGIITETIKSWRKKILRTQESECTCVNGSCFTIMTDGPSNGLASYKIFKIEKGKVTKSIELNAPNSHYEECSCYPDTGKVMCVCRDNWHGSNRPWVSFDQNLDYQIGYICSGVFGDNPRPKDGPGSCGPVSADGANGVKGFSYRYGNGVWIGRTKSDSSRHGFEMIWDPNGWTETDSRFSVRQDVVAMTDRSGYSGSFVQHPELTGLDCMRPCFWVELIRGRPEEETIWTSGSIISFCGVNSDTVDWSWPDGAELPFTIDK
Chain of Neuraminidase (Influenza A virus (A/Memphis/1/1971(H3N2)), UniProt P03471) (P03471 whole entry): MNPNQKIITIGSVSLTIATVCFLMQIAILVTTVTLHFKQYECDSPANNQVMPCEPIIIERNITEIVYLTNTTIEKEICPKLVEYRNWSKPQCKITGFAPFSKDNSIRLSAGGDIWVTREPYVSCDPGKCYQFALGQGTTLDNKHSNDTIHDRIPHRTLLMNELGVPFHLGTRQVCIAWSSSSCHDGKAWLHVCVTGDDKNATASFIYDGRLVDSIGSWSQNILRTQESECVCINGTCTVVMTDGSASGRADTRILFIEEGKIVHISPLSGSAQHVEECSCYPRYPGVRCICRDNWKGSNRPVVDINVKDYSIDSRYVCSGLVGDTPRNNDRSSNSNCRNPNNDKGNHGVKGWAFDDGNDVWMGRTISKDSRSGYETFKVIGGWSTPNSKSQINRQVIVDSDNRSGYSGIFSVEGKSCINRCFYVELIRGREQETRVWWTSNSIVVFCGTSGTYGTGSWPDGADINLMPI

CCC(CC)[C@H](NC(C)=O)[C@@H]1[C@H](O)[C@@H](C(=O)O)C[C@H]1NC(=N)N [PERAMIVIR ANHYDROUS] gave an IC50 [1] of 2 nM, an IC50 [2] of 0.48 nM and a CC50 at 48 h [3] of over 100000 nM. For the same compound, the IC50 [4] was 0.4 nM and the EC50 (Influenza A virus [5]) was 6.68 nM.
For CCC(CC)[C@H](NC(C)=O)[C@@H]1[C@H](OC(=O)NCCCNC(=O)/C=C/c2ccc(O)c(O)c2)[C@@H](C(=O)O)C[C@H]1NC(=N)N, the Drug metabolism [6] was “Metabolite_Detected”, the IC50 [2] was 0.44 nM and the Activity (Influenza A virus [7]) was “Active”. For the same compound, the Drug metabolism [8] was “Metabolite_Notdetected”, the CC50 at 48 h [3] was over 100000 nM and the Survival (Influenza A virus [9]) was 100%. For the same compound, the Stability [10] was “Stable”, the IC50 [4] was 1.8 nM and the EC50 (Influenza A virus [5]) was 1.56 nM.
Work on CCC(CC)[C@H](NC(C)=O)[C@@H]1[C@H](OC(=O)NCCCOCCCc2ccc(O)c(O)c2)[C@@H](C(=O)O)C[C@H]1NC(=N)N yielded an IC50 [2] of 0.67 nM, a CC50 at 48 h [3] of over 100000 nM and a Survival (Influenza A virus [9]) of 50%. For the same compound, the EC50 (Influenza A virus [5]) was 3.5 nM.
In the case of CCC(CC)[C@H](NC(C)=O)[C@@H]1[C@H](OC(=O)NCCCOC(=O)/C=C/c2ccc(O)c(O)c2)[C@@H](C(=O)O)C[C@H]1NC(=N)N, the IC50 [1] is reported as 27.2 nM, the IC50 [2] is reported as 1.05 nM and the Activity (Influenza A virus [7]) is reported as “Active”. It also gave a CC50 at 48 h [3] of over 100000 nM, an IC50 [4] of 0.9 nM and an EC50 (Influenza A virus [5]) of 1.68 nM.
For CCC(CC)[C@H](NC(C)=O)[C@@H]1[C@H](OC(=O)NCCCO)[C@@H](C(=O)O)C[C@H]1NC(=N)N, the Drug uptake [11] was 26%, the IC50 [2] was 0.64 nM and the CC50 at 48 h [3] was over 100000 nM. It also gave an EC50 (Influenza A virus [5]) of 2.22 nM.
CCC(CC)[C@H](NC(C)=O)[C@@H]1[C@H](OC(=O)NCCCN)[C@@H](C(=O)O)C[C@H]1NC(=N)N showed an IC50 [2] of 0.94 nM, a CC50 at 48 h [3] of over 100000 nM and an EC50 (Influenza A virus [5]) of 2.58 nM.
With CCOC(=O)C1=C[C@@H](OC(CC)CC)[C@H](NC(C)=O)[C@@H](N)C1 [OSELTAMIVIR] the Activity (Influenza A virus [9]) was “Active”.
CCC(CC)OC1C=C(C(=O)O)C[C@H](N)[C@H]1NC(C)=O (some centres undefined) showed a CC50 at 48 h [3] of over 100000 nM and an EC50 (Influenza A virus [5]) of 16.6 nM.
